Measured values published in article PMC9814400 (Communications Chemistry, 2022).
Like-named read-outs stand apart in the source and are kept apart here.

What was measured:
N-domain of p97 = target: T1, N-domain of p97 (Homo sapiens, UniProt P55072); test: STD-NMR build-up measurements with the isolated N-domain; type: binding
T1 construct: additional STD measurements with the isolated N-domain were carried out; made in house
Procedure: To obtain additional information about the putative binding mode of the selected fragments, full STD-NMR build-up curves were measured for the fragments TROLL2, TROLL7, TROLL8 and TROLL12 and the initial rates of STD build-up (STD0) were calculated. […] As expected, the saturation effects were higher for the ND1 construct compared to the isolated N-domain due to the stronger nuclear Overhauser effect (NOE) of the much larger protein. Because of water suppression, not all hydrogens of the selected fragments were experimentally accessible. For the remaining hydrogen atoms, different STD0 values were determined, indicating a defined orientation of the fragments upon binding to p97 (Supplementary Fig. 7). For TROLL2, TROLL7 and TROLL12 a clear dominance in the saturation of the protons at the hydrophobic aromatic parts of the molecules was visible.
For binding epitope mapping of selected fragments, the initial growth rates approach was used as described. For determination of the initial rate of STD build up (STD0) the STD intensities for seven saturation times (0.5, 0.75, 1.0, 1.5, 2.0, 3.0, 5.0 s) were measured for the ND1 as well as for the isolated N-domain and fitted by an exponential equation using R. The recycle delay (d1) was set to 5 s. For each fragment also a negative control without protein was measured with a saturation time of 5.0 s. Theoretical STD0 values on the basis of the obtained X-ray crystal structure as well as for representative mixed-solvent MD poses were calculated using the Complete Relaxation and Conformational Exchange Matrix Analysis of Saturation Transfer (CORCEMA-ST) software version 3.8[72] and ShiftX version 1.1[73]. Predicted and experimental STD-data were evaluated using the NOE R-factor (see Supplementary Methods in the Supporting Information).

p97-N = target: T2, p97-N (Homo sapiens, UniProt P55072); test: BLI dose-response binding to the isolated N-domain of p97; conditions: for LLEAT: based on KD for p97-N, heavy atom count and clogP; for ScoreBLI: based on sensorgrams from measurements with p97-N, about 1.0 or above = 1:1 binder; for LE: ligand efficiency based on KD for p97-N; for Kd: BLI steady state, 1:1 Langmuir model, errors from the fitting model
T2 construct: Constructs of p97-N (aa 21-199, N-terminal 3 C protease-cleavable His6-tag); His6 (3C protease-cleavable) (N); made in house
T2 sequence (P55072 21-199): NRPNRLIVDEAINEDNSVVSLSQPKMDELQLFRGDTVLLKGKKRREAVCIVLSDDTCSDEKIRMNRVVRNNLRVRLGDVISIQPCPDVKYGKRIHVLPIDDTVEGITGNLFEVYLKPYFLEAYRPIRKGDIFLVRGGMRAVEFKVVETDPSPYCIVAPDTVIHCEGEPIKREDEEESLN
Procedure: The selected 42 fragments of the screen with the N-domain were tested in a dose-dependent manner using concentrations from 1000.0 µM to 31.3 µM in 1:1 dilution steps. […] The sensorgrams of these fragments were fitted with a 1:1 Langmuir model to estimate their affinities and analyzed with respect to the following parameters: (i) The presence of a stationary phase; (ii) curve shapes according to either a homogeneous (1:1) or a heterogeneous (2:1) binding model, and (iii) justification of a 1:1 binding model via the obtained empirical constants kobs of the association phase. Based on these analyses, a ScoreBLI was calculated (for details see Supplementary Methods in the Supporting Information). The calculated ScoreBLI should be close to or above 1.0 for ligands that can be described with a 1:1 model, whereas ligands showing unspecific binding yield values << 1.0. Based on the ScoreBLI, we divided the fragments into a low-scoring (<0.70) and a high-scoring (≥0.70) group.
(§1) Protein constructs for BLI measurements were enzymatically biotinylated using BirA[28]. Biotinylated p97 was loaded on Super Streptavidin Biosensors (SSA) obtained from Sartorius as follows. SSA-sensors were equilibrated in PBS-buffer, loaded with a protein solution containing 50 µg/mL (p97-ND1) or 100 µg/mL (p97-N) protein, blocked with biocytin and washed in PBS buffer. Reference SSA-sensors were set up by blocking them with a 10 µg/mL biocytin solution for 5 min[27]. The SSA-sensors were loaded to a shift of up to 7 nm with p97-ND1 and 10 nm with p97-N, respectively.
(§2) Screening plates were prepared by adding 10 µL of a 10 mM DMSO stock solution of library compound to 190 µL of PBS buffer (containing 0.05% TWEEN 20, 1 mM DTT and 5 mM MgCl2 [only for p97-ND1]) in 96 well plates (Greiner). The final DMSO concentration was 5% (v/v). All BLI measurements were performed on an Octet RED96e (Sartorius) device.
(§3) Selected fragments of the initial screenings were confirmed by dose-response-titrations using six concentrations ranging from 1000 to 31.3 µM in a 1:1 dilution series. Every concentration was measured twice. The assay settings were as follows: baseline measurement 15 s; association time 120 s and dissociation time 180 s. The double referenced data were further analyzed in Origin Pro to estimate the affinity by fitting the signals of the steady states to a 1:1 Langmuir model. For the fitting all measured data points (n = 2) were considered.
Definition of the quality score “ScoreBLI”
For selecting fragments for further analysis, the ScoreBLI was def ined as : […]
SSSSSSSSSSBBBBBB = rrmmmmmmmm 1:1rrmmmmmmmm 2:12 SSkkkkkkkk rmean 1:12 is the mean of the r2 coefficients of t he r egr es s ions of all association phases measured f or a given f ragment. The data were f itted with a 1:1 binding model:
RRPP = RRPPee ?1 − SS −(kkkkkkkk PP ) ? with RRPP the shift at the time t, k obs the empirical rate constant and RRPPee the shift at equilibrium.
In analogy, the rmean 2:12 was def ined by f itting with a 2:1 binding model:
RRPP = RRPPee 1 ?1 − SS −(kkkkkkkk1 PP) ? + RRPPee 2 ?1 − SS −(kkkkkkkk2 PP) ? A ligand f ollowing a 1:1 model would result in a good rmean2 f or both functions, whereas f or a lig and which is better described with a 2:1 model the rmean2 f or a 1:1 model would decrease, resulting in an overall decreased value.
In case of a 1:1 model the empirical rate constant k obs is proportional to the concentration of […]
kkkkkkkk = kkPP [LL ] + kkdd with ka t he association rate constant and kd t he dissociation rate constant. Theref ore, all observed empirical rate constants of a ligand were subjected to a linear regression model, which yielded the value r kobs2 .
A Langmuir model was used to es t im at e the affinities of the fragments. The use of this model requires that a chemical equilibrium is reached. To analyze whether this condition was met, the responses of the last 10 seconds of each association phase were f itted with a linear model. […]

p97-ND1 [1] = target: T3, p97-ND1 (Homo sapiens, UniProt P55072); test: STD-NMR with p97-ND1 in the presence of 500 µM ADP; type: binding; design: key to mean STD-effect (ND1) / maximum STD-effect (ND1): STD effect = Idiff/Ioff × 100 (%); conditions: for maximum STD-effect (ND1) / mean STD-effect (ND1): Supplementary Table 3; for STD (maximum STD signal measured with p97-ND1): aromatic resonances, 428 µM fragment, 30 µM protein, 500 µM ADP
T3 construct: His6 (TEV protease-cleavable) (N); made in house
T3 sequence (P55072 2-481): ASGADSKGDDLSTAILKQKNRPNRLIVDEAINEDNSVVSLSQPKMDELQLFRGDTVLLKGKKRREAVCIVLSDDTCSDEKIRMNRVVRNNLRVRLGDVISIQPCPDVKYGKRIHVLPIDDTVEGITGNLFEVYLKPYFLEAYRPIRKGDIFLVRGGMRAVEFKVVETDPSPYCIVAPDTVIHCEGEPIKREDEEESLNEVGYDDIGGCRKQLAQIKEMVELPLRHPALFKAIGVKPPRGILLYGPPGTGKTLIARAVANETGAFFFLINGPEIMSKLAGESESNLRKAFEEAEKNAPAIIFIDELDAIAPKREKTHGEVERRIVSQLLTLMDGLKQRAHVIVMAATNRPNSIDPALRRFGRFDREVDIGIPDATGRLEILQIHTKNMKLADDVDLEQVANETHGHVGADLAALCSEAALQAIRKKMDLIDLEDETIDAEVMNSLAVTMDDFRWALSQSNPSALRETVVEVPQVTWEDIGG
Procedure: The NMR measurements were carried out with the biologically more relevant p97-ND1 construct in the presence of 500 µM ADP to block the nucleotide binding site. The STD effect was calculated by dividing the intensity of the difference spectrum by the intensity of the off-spectrum (Idiff/ Ioff × 100) for each signal. For further analysis only resonances in the aromatic region of the ^1H NMR spectrum of the individual ligand were considered. A mean STD effect of each fragment interacting with p97-ND1 was calculated using the sum of the individual STD effects divided by the number of signals considered. Furthermore, the maximum STD effect of each compound was determined. […] Similar results were obtained in the previously reported fragment screen with p97[26]. An overview of the STD effects is shown in Supplementary Fig. 4.
All Saturation-Transfer-Difference (STD)[32] measurements were performed on a Bruker Avance III 400 MHz spectrometer (Karlsruhe, Germany) operating at 400.13 MHz with a PABBI 1H/D-BB Z-GRD inverse probe at 300 K adjusted with a BSVT (Bruker) temperature control unit. Temperature calibration was carried out with 99.8% CD3OD (282–330 K). The stddiffesgp.3 pulse program from the Bruker pulseprogram library was used for data acquisition. The suppression of the HDO signal (4.703 ppm) was achieved by the excitation sculpting method. The saturation frequency for the on- and off-resonances was set to −400 Hz and −16,000 Hz, respectively. The saturation time was 3 s with a relaxation delay D1 of 4 s.
The protein stock solutions were transferred to a deuterated buffer containing 35 mM potassium phosphate and 25 mM NaCl in D2O at a pD of 7.5 using 0.5 mL Centricon devices (Merck Millipore) with a MWCO of 30 kDa by washing and centrifuging several times at 10,000 × g and 4 °C. Buffer-exchanged protein was adjusted to a concentration of 30 µM with NMR buffer. The respective fragment concentration was 428 µM with a final DMSO-d6 fraction of 5% (v/v). All measurements were performed in the presence of 500 µM ADP (in case of the ND1 domain) and 5 mM MgCl2. All data were analyzed using TopSpin 4.0.8 (Bruker Corporation, Billerica, MA, USA).

p97-ND1 [2] = target: T3, p97-ND1; test: BLI dose-response binding to the p97-ND1 construct
Excerpt: As starting point for the initial screen, a BLI binding assay was developed with a p97-ND1 construct (amino acids 2-481) to allow validation with adenosine diphosphate (ADP) as a positive control. The p97-ND1 construct was enzymatically biotinylated via an Avi-Tag and Escherichia coli biotin ligase[28] and loaded to high response (>5 nm) on Super Streptavidin Biosensors (SSA), yielding a homogeneous sensor surface. […] The kinetic analysis of the sensorgrams indicated a clear 1:1 binding model for ADP. […] Another surprising result were the high responses upon ADP-binding with shifts over 0.7 nm. These high values indicate that the BLI signal is not only dependent on the molar weight as in SPR but may also reflect conformational changes induced in p97 upon ADP binding.
For 12 fragments, a dose-dependent binding was observed and a 1:1 Langmuir model could be applied to obtain the respective KD value. The determined KD^(p97-ND1) values mostly agreed well with those previously determined for the respective fragments with the isolated N-domain. […] TROLL1 and VIK40 were therefore not considered further.
as §1, §2, §3

p97 ND1 fragment = conditions: read-out: reported affinity of ADP, cited from earlier work
[3] = BLI steady state, 1:1 Langmuir model, errors from the fitting model, read-out: KD p97-ND1

T1 sequence (P55072 21-199 limits assumed): as the sequence (P55072 21-199) above

SMILES	binding to the N-domain by STD-NMR (N-domain of p97)	LLEAT (p97-N)	ScoreBLI (p97-N)	LE (p97-N)	maximum STD-effect (ND1) (p97-ND1 [1])	mean STD-effect (ND1) (p97-ND1 [1])	STD (maximum STD signal measured with p97-ND1) (p97-ND1 [1]) [%]	Kd (p97-N) [µM]	Kd (p97-ND1 [2]; [3]) [µM]	Kd (p97-ND1 [2]; Langmuir model, steady state measurements of a dilution series, read-out: KD of ADP to p97-ND1 (steady state)) [µM]	Kd (p97-ND1 [2]; global exponential regression, 1:1 binding model, read-out: affinity of ADP to p97-ND1 (kinetic analysis)) [µM]	ScoreBLI (p97-ND1 [2]; score evaluated with binding data for ADP)	Kd (p97 ND1 fragment; ND1 fragment spanning amino acids 1-458) [µM]	Kd (p97 ND1 fragment; ND1 fragment spanning amino acids 1-480) [µM]
NCC(O)c1ccc(Cl)cc1 (stereo not shown) [TROLL7]	confirmed the binding	0.42	0.91	0.45	37.3	34.5	37.3							
Nc1[nH]ncc1-c1ccc(Cl)cc1 [TROLL18]		0.27	0.89	0.33	57.4	54.3	57.4	625 ± 89	445 ± 223					
O=C(O)Cc1cc2ccccc2[nH]1 [TROLL6]		0.30	0.75	0.39	72.5	66.5	72.5	160 ± 22	243 ± 16					
Cc1oc(CN)nc1-c1ccccc1 [TROLL12]	confirmed the binding	0.34	0.84	0.33	47.9	44.5	47.9	354 ± 17						
NCC(O)c1ccc(Br)cc1 (stereo not shown) [TROLL2]	confirmed the binding	0.47	0.83	0.52	37.7	36.0	37.7	56 ± 46	321 ± 67					
Cc1ccc(-c2cc(N)n[nH]2)o1 [TROLL8]	confirmed the binding	0.40	0.91	0.41	41.0	33.1	41.0	245 ± 43	598 ± 214					
Cc1ccc(-c2csc3nc(CO)cn23)cc1 [TROLL14]		0.16	0.93	0.27	67.4	55.4	67.4	409 ± 61	290 ± 33					
Nc1nc2c(s1)CN(Cc1ccccc1)CC2 [VIK20]		0.27	0.94	0.30	18.3	18.3	18.3	147 ± 32	192 ± 92					
Nc1ncnc2c1ncn2[C@@H]1O[C@H](COP(=O)(O)OP(=O)(O)O)[C@@H](O)[C@H]1O [ADP, adenosine diphosphate, reference compound]										0.2 ± 0.014	0.239 ± 0.009	1.02	0.2	0.098
